Measured values taken from article PMC13197777, “Distinct 2-phenylimidazo[1,2-a]pyridine derivatives that inhibit breast cancer cell proliferation identified as AHR ligands” (iScience, 2026).
Values after ≈ are worked out from the molar mass of the structure shown.

Columns and labels:
ERα full-length = molecular target: T1, ERα full-length (Homo sapiens, UniProt P03372); assay: PolarScreen ERα Competitor Assay (fluorescence polarization); type: binding
T1 construct: 34 nM ERα full-length and 1.4 nM Fluormone EL Red were incubated; purchased ThermoFisher A15884
T1 sequence (P03372 1-595): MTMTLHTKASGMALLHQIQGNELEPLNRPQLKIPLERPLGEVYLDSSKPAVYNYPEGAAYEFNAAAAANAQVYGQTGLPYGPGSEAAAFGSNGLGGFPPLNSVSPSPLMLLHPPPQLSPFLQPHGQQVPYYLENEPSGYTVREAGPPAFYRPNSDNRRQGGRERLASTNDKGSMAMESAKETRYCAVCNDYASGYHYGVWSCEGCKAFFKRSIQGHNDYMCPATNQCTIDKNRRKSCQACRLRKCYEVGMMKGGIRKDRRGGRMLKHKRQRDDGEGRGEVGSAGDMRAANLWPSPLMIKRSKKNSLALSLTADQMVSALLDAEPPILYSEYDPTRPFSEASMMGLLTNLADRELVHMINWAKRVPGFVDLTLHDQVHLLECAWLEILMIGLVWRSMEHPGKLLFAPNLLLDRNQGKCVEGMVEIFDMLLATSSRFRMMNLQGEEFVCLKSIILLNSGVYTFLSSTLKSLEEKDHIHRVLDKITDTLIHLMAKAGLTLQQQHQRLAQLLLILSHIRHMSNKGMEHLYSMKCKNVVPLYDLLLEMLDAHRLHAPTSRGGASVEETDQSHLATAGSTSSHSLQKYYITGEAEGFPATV
Protocol: The PolarScreen Estrogen Receptor-Alpha Competitor Assay, Red (ThermoFisher, A15884) was used to determine if the X compounds bind to ERα. The assay was performed according to the manufacturer’s protocol.

AHR-Hsp90-XAP2 = molecular target: T2, AHR-Hsp90-XAP2 (Homo sapiens, UniProt P35869); assay: Thermal stability measurements (nano-DSF); type: binding; conditions: 2.5 μM protein, 12.5 μM compound
T2 construct: made in house
T2 sequence (P08238 whole entry partner, one chain of several): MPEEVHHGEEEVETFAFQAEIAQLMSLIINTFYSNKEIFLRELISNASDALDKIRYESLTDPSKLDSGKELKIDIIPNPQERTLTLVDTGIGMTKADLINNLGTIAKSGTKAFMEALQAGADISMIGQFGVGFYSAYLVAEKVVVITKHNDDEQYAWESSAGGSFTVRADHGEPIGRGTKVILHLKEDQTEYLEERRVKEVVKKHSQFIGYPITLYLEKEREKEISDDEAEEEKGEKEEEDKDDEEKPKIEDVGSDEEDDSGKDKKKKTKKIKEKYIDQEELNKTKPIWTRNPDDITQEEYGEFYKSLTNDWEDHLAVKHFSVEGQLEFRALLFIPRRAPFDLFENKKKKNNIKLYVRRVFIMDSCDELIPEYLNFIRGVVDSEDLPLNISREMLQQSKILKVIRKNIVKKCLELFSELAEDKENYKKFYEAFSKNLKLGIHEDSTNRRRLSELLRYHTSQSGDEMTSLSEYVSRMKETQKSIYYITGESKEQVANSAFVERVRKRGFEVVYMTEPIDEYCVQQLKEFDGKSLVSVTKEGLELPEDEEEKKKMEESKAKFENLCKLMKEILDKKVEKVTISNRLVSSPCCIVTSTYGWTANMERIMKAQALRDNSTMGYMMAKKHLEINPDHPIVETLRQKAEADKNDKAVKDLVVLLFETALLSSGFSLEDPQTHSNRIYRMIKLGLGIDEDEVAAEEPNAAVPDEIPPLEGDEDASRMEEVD
T2 sequence (O00170 whole entry partner, one chain of several): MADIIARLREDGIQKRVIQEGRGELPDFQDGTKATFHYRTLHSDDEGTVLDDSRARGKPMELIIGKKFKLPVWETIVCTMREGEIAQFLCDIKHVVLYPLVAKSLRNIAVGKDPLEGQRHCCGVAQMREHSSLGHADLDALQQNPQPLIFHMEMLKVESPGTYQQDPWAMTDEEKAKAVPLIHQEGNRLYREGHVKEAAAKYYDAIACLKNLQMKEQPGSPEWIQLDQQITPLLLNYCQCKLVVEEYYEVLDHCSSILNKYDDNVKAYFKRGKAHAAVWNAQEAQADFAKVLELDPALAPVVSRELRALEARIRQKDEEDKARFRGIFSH
Protocol: Thermal denaturation experiments of AHR complexes in the presence of compounds were performed using a Tycho NT.6 instrument (NanoTemper Technologies). Protein samples were prepared as previously described[67] and subsequently diluted in the buffer containing 20 mM Bis-Tris–HCl pH 7.0, 50 mM NaCl, 10 mM KCl, 10 mM MgCl2, 20 mM Na2MoO4 and 2 mM β-mercaptoethanol to a final protein concentration of 2.5 μM. Compound stock solutions were prepared at 20 mM in DMSO and added to the protein samples to yield a final concentration of 12.5 μM. For control measurements, DMSO was added to a final concentration of 5% (v/v). Following ligand or DMSO addition, the samples were gently mixed and incubated at room temperature for 10 min to allow equilibration. Thermal denaturation profiles were acquired over a temperature range of 35°C–95°C, with a heating rate of 1 °C per min. Fluorescence was monitored at emission wavelengths of 330 nm and 350 nm, and the data were analyzed as the first derivative of the fluorescence ratio (F330/F350) as a function of temperature. All experiments were performed in triplicate, and data were analyzed using the Tycho NT.6 software (NanoTemper Technologies) according to the manufacturer’s recommendations.

ERα in MCF-7 cells = assay: Immunoblot of ERα in MCF-7 cells; type: cell-based, human; conditions: MCF-7, 48 h, increasing concentrations up to 1 μM
Protocol: To determine the relative expression of proteins by Western blotting, cells were first washed with ice-cold phosphate buffered saline (PBS). Subsequently, they were lysed in ice-cold NP40 lysis buffer (1%NP-40, 50 mM Tris-HCl, pH 8.0, 150 mM NaCl, 5 mM Ethylenediaminetetraacetic acid [EDTA], 1 mM PMSF) on ice. DNA was degraded by sonification (five pulses at 50 amplitudes). Protein concentration was determined, and equal amounts of protein were separated on a 9% SDS-PAGE gel. The proteins were transferred onto nitrocellulose membrane by a standard Western blotting protocol and the membranes were incubated with the following antibodies: ERα (Santa Cruz Biotechnology, sc-8002, RRID: AB_627558) and PCNA (Santa Cruz Biotechnology, sc-56, RRID: AB_628110), followed by incubation with HRP labeled Goat anti-mouse Immunoglobulins (DAKO, P0447, RRID: AB_2617137).

[1] = tested on: ER+ MCF-7, ZR75–1, and T47D breast cancer cells; design: method as in PMID 37520743; conditions: previously identified ref 17; cited from earlier work
AHR = molecular target: T3, AHR (Homo sapiens, UniProt P35869); assay: AHR luciferase reporter assay in HAHLH cells; type: cell-based; conditions: 8 h, % of maximal luciferase activity with dioxin 10 nM, read-out: EC50 AHR transactivation
T3 construct: endogenous in cells; host or cells: HAHLH (HeLa with XRE-luciferase reporter)
T3 sequence (P35869 11-848): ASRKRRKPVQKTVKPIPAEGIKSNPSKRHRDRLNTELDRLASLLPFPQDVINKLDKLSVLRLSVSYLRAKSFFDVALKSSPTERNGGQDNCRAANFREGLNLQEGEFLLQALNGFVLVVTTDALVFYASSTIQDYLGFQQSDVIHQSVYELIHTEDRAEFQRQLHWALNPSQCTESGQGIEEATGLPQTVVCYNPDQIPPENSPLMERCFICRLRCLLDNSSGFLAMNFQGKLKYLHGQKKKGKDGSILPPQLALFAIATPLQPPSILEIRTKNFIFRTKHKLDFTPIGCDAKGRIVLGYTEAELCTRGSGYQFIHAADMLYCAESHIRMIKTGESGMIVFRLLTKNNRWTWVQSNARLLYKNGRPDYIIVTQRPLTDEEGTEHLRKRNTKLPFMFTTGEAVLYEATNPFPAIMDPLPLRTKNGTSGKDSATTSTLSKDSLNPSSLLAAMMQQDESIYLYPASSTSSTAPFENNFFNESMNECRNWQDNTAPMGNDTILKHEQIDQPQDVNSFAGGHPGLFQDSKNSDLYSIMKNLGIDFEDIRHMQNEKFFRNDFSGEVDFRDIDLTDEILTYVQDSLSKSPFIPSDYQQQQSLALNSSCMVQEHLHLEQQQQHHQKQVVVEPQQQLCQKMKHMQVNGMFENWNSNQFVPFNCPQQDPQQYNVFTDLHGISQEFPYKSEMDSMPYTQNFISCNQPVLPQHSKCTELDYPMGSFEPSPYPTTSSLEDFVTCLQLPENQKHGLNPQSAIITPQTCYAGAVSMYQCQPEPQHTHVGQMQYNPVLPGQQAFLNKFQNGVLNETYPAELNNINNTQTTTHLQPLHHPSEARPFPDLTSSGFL
From the text: To characterize the chemical induced AHR activity, we used the already established HAHLH reporter cell lines obtained by stably expression of HeLa cells with the dioxin-responsive gene XRE(TnGCGTG)3-tata-luciferase-Luc-hygromycin plasmid.[29] The reporter HELN hERα cell line was obtained by transfecting human HeLa cells with the ERE-responsive gene ERE-βGlobin-luciferase-Luc-neomycin and the pSG5-hERα-puromycin plasmids as previously described.[59] To determine the action of the chemical on AHR and hERα activity, cells were seeded at a density of 50,000 cells per well in 96-well white opaque tissue culture plates (Greiner CellStar) in 150 μL of Dulbecco’s Modified Eagle Medium: Nutrient Mixture F-12 (DMEM/F- 12) without phenol red and 1 g/L glucose and supplemented with 5% stripped fetal bovine serum, 100 units/mL of penicillin, 100 μg/mL of streptomycin (test medium). Twenty-four hours later, chemicals to be tested were added at 4x concentration in culture medium, and cells were incubated at 37 °C for 8 h (HAhLH cells) or 24 h (HELN hERα cells). At the end of the incubation period, culture medium was replaced with test medium containing 0.3 mM luciferin and luciferase activity was measured for 2 s in intact living cells using a MicroBeta Wallac luminometer (PerkinElmer). Tests were performed in quadruplicate at 4x concentration in the same medium in at least 4 independent experiments. Results were expressed as % of the maximal luciferase activity. […] Effective concentration (ECs) for a given compound, EC50 is defined as the concentration inducing 50% of its maximal effect. The EC50 values were calculated including the adjustment for the basal activity of the cell line.

MCF-7 cells = assay: Clonogenic assay in MCF-7 cells with AHR antagonist CH223191; type: cell-based, human; conditions: MCF-7, 10 nM compound, 1 μM CH223191, 14 days
Protocol: Cells were seeded at a density of 1–2×10^3 cells/well in a 6-well plate and treated with increasing concentrations of the X compounds for 14–21 days. Medium and compounds were renewed every 7 days. The experiments were terminated by fixing the cells with methanol and the colonies formed were visualized after staining with 0.5% crystal violet (w/v) in 20% methanol (v/v). Plates were photographed and the area covered by the colonies was calculated using the ColonyArea Plugin for Fiji (RRID:SCR_003070).[20]

[2] = tested on: AHR target genes CYP1A1, CYP1B1, ALDH3A1; conditions: human, 16 h, 1 µM
[3] = Thermodynamic solubility, shake-flask method; type: physicochemical; conditions: HEPES buffer 0.1 M pH 7.4, 21 °C
Protocol: Thermodynamic solubility was determined using the classical shake-flask method. The solid compound (4 mg) was suspended in 1 mL HEPES buffer (0.1 M, pH 7.4) and constantly stirred at 21 °C for 24 h. […] The injection volume for all analyses was 50 μL and the flow rate was kept at 1 mL/min during the analysis. A mobile phase gradient method was applied as a method with 5% solvent B to 99% solvent B in 5 min, followed by 3 min of elution at 99% solvent B.
Calibration curve was generated from a serial dilution of the respective analyte in DMSO at 2.5, 1.25, 0.625, 0.313, 0.156, 0.078, 0.039 mM starting from a 10 mM DMSO stock solution. Subsequently, 2 μL of each dilution was added to 198 μL of a buffer (HEPES, 0.1 M, pH 7.4)/acetonitrile mixture in a 3:2 ratio yielding final dilutions of 25, 12.5, 6.25, 3.125, 1.562, 0.781, 0.391 μM. These were then subjected to HPLC analysis as described above.
Using the results from the linear regression of the internal calibration measurement points (Figure S5) and the mean AUC values from the saturated aqueous solutions, the concentration C of the analytes in the saturated aqueous solution, expressed in μM, were calculated using Equation 2:(Equation 1) AUC=Slope·C+YIntercept (Equation 2) C=AUC−YIntercept/Slope

[4] = Compound stability in aqueous environment; type: physicochemical; conditions: 12.5 μM, HEPES pH 7.4/acetonitrile 3:2, 1% DMSO, 21 °C, 5 days
Protocol: The stability of the compounds was evaluated at a concentration of 12.5 μM in a 3:2 mixture of buffer (HEPES, 0.1 M, pH 7.4) and acetonitrile, with 1% DMSO. Acetonitrile was added because the concentration of 12.5 μM exceeded the thermodynamic solubility of the compounds in the buffer. This addition thereby prevented the formation of precipitates and a gradual decrease in compound concentration during the measurement. The resulting solution was stirred at 21 °C in a sealed vial (crimp neck vials, 5 mL, clear (Cat. No. 548-0611A) in combination with natural rubber septa (548-0565A) and aluminum crimp caps (548-3278A), VWR International) for 5 days. […] The AUC measured was subsequently plotted as a function of the incubation time (Figure S3). No signs of decomposition could be observed over the given time.

Fc1ccccc1-c1cn2ccccc2n1 [X19712]
displacement of the Fluormone tracer from ERα (ERα full-length): failed to displace the Fluormone
thermal stabilization of AHR (nano-DSF) (AHR-Hsp90-XAP2): promote AHR destabilization
ERα destabilization (immunoblot) (ERα in MCF-7 cells): no significant ERα destabilization
Inhibition of Proliferation [1]: No

Cc1cccn2cc(-c3ccccc3F)nc12 [X19718]
displacement of the Fluormone tracer from ERα (ERα full-length): failed to displace the Fluormone
thermal stabilization of AHR (nano-DSF) (AHR-Hsp90-XAP2): promote AHR destabilization
ERα destabilization (immunoblot) (ERα in MCF-7 cells): no significant ERα destabilization
Inhibition of Proliferation [1]: No

Cc1cccn2cc(-c3ccc(F)cc3)nc12 [X19167]
displacement of the Fluormone tracer from ERα (ERα full-length): failed to displace the Fluormone
thermal stabilization of AHR (nano-DSF) (AHR-Hsp90-XAP2): promote AHR destabilization
ERα destabilization (immunoblot) (ERα in MCF-7 cells): no significant ERα destabilization
EC50 (AHR): 173 nM
Inhibition of Proliferation [1]: No

Fc1ccc(-c2cn3cc(C(F)(F)F)ccc3n2)cc1 [X20046]
ERα destabilization (immunoblot) (ERα in MCF-7 cells): most proficient in destabilizing ERα
inhibition of colony expansion in the presence of AHR antagonist CH223191 (MCF-7 cells): clearly abrogated by the AHR antagonist CH223191
expression of AHR target genes (RT-PCR) [2]: enhanced the transcriptional activity of the AHR target genes in both MCF-7 and T47D cells
Inhibition of Proliferation [1]: Yes

Fc1ccccc1-c1cn2cc(C(F)(F)F)cc(Cl)c2n1 [X19720]
solubility thermodynamic at 24 h [3]: 1.4 µM (≈ 0.441 µg/mL)
solubility thermodynamic at 24 h ([3]; HEPES buffer, 21 °C, pH 7.4, aqueous buffer, thermodynamic from solid): 1.35 µM (≈ 0.425 µg/mL)
ERα destabilization (immunoblot) (ERα in MCF-7 cells): most proficient in destabilizing ERα
inhibition of colony expansion in the presence of AHR antagonist CH223191 (MCF-7 cells): clearly abrogated by the AHR antagonist CH223191
expression of AHR target genes (RT-PCR) [2]: enhanced the transcriptional activity of the AHR target genes in both MCF-7 and T47D cells
stability in aqueous environment [4]: no obvious decomposition detected
